Here are results for 20 compounds from ChEMBL document CHEMBL4513161, “CO-ADD screening of MMV (CH) - Pandemic Response Box” (2021).

Assay [1] has as its system Pseudomonas aeruginosa. Put plainly: Antibacterial activity against Pseudomonas aeruginosa PAO397 [PAO1 d(mexAB-oprM) d(mexCD-oprJ) d(mexEF-oprN) d(mexJKL) d(mexXY) d(opmH)] (CO-ADD:GN_211); MIC in CAMBH media using NBS plates, by OD(600). The class given is functional. Particulars: ASSAY_TEST Inhibition of Bacterial Growth, detection method Absorption (OD600), MEDIA CAMHB, plate type 384well, CORNING #3640, time 18 hr.

Assay [2] concerns Pseudomonas aeruginosa. Put plainly: microbe, parasite or virus in culture. The conditions noted are these: ATCC 27853, 18 h, ASSAY_TEST Inhibition of Bacterial Growth, detection method Absorption (OD600), MEDIA CAMHB, plate type 384well, NBS, CORNING #3640.
Description: Antibacterial activity against Pseudomonas aeruginosa ATCC 27853 (CO-ADD:GN_042); MIC in CAMBH media using NBS plates, by OD(600)
Another assay deals with Klebsiella pneumoniae. Put plainly: microbe, parasite or virus in culture. Particulars: ATCC 700603, 18 h, ASSAY_TEST Inhibition of Bacterial Growth, detection method Absorption (OD600), MEDIA CAMHB, plate type 384well, NBS, CORNING #3640.
For another assay, the system named is Acinetobacter baumannii. Put plainly: microbe, parasite or virus in culture. The conditions noted are these: ATCC 19606, 18 h, ASSAY_TEST Inhibition of Bacterial Growth, detection method Absorption (OD600), MEDIA CAMHB, plate type 384well, NBS, CORNING #3640.
A further assay concerns Candida albicans. Put plainly: microbe, parasite or virus in culture. Particulars: ATCC 90028, ASSAY_TEST Inhibition of Fungal Growth, detection method Absorption (OD530), plate type 384well, NBS, CORNING #3640.
The next assay relates to HEK293. Put plainly: cells. The class given is functional, Homo sapiens, ATCC CRL1573. The conditions noted are these: Homo sapiens, ATCC CRL1573, HEK293; ASSAY_TEST Inhibition of Cell Viability; detection method Resazurin; Fluorescence (ex560/em590); MEDIA DMEM with 10% FBS; plate type 384well; TC; CORNING #3712; time 18 hr; read-out: CC50. Background: The colour change of resazurin is a common sign of viable cells or microbes.

The next assay has as its system Staphylococcus aureus. Put plainly: microbe, parasite or virus in culture. The conditions noted are these: ATCC 43300, 18 h, ASSAY_TEST Inhibition of Bacterial Growth, detection method Absorption (OD600), MEDIA CAMHB, plate type 384well, NBS, CORNING #3640.
The next assay concerns Escherichia coli. Put plainly: microbe, parasite or virus in culture. Particulars: ATCC 25922, 18 h, ASSAY_TEST Inhibition of Bacterial Growth, detection method Absorption (OD600), MEDIA CAMHB, plate type 384well, NBS, CORNING #3640.

In brackets after ≈: the same amount, converted by molar mass.

As a reminder, the CC50 is the concentration at which the toxic effect on the cells reaches its halfway point.

Description for Acinetobacter baumannii: Antibacterial activity against Acinetobacter baumannii ATCC 19606 (CO-ADD:GN_034); MIC in CAMBH media using NBS plates, by OD600
Description for Candida albicans: Antifungal activity against Candida albicans ATCC 90028 (CO-ADD:FG_001); MIC in YNB media using NBS plates, by OD630
Description for Cryptococcus neoformans: Antifungal activity against Cryptococcus neoformans H99 ATCC 208821 (CO-ADD:FG_002); MIC in YNB media using NBS plates, by Resazurin OD(600-570)
Description for Escherichia coli: Antibacterial activity against Escherichia coli ATCC 25922 (CO-ADD:GN_001); MIC in CAMBH media using NBS plates, by OD(600)
Description for Klebsiella pneumoniae: Antibacterial activity against Klebsiella pneumoniae MDR ATCC 70063 (CO-ADD:GN_003); MIC in CAMBH media using NBS plates, by OD(600)
Description for Staphylococcus aureus: Antibacterial activity against Staphylococcus aureus MRSA ATCC 43300 (CO-ADD:GP_020); MIC in CAMBH media, using NBS plates, by OD(600)

Take `NC(=S)N/N=C/c1ncccc1N` [TRIAPINE]: the MIC is 20 µM (≈ 3.91 µg/mL) in the assay with Pseudomonas aeruginosa [1]; greater than 20 µM in the assay on Cryptococcus neoformans; greater than 20 µM in the assay with Pseudomonas aeruginosa [2]; greater than 20 µM in the assay with Klebsiella pneumoniae; greater than 20 µM in the assay with Acinetobacter baumannii; greater than 20 µM against Candida albicans. The MIC with Staphylococcus aureus and in the assay with Escherichia coli was greater than 20 µM throughout. For the same compound, the CC50 with HEK293 was determined as 2.83 µM.

On to `CONC(=N)c1ccc(-c2ccc(-c3ccc(C(=N)NOC)cc3)o2)cc1` [PAFURAMIDINE], for which the MIC in the assay with Pseudomonas aeruginosa [1], in the assay on Cryptococcus neoformans, with Pseudomonas aeruginosa [2], against Klebsiella pneumoniae, with Acinetobacter baumannii and with Candida albicans was greater than 20 µM throughout. For the same compound, the MIC in the assay on Staphylococcus aureus and against Escherichia coli was greater than 20 µM each time. Also, the 50% cytotoxic concentration (CC50) in the assay with HEK293 is greater than 20 µM.

For `O=C(O)c1cc(-c2ccc(Br)cc2)nc2ccc(Cl)cc12`, the MIC with Pseudomonas aeruginosa [1], in the assay on Cryptococcus neoformans, against Pseudomonas aeruginosa [2], with Klebsiella pneumoniae, in the assay on Acinetobacter baumannii and in the assay on Candida albicans was greater than 20 µM throughout. The MIC in the assay on Staphylococcus aureus and in the assay with Escherichia coli was greater than 20 µM throughout. In addition, the CC50 in the assay on HEK293 was greater than 20 µM.

For the compound `O=C(Nc1nnc(-c2ccc(Cl)cc2)o1)c1ccc(F)cc1`, the MIC in the assay on Pseudomonas aeruginosa [1], against Cryptococcus neoformans, in the assay on Pseudomonas aeruginosa [2], in the assay on Klebsiella pneumoniae, in the assay on Acinetobacter baumannii and against Candida albicans was greater than 20 µM each time. Further, the MIC in the assay on Staphylococcus aureus and against Escherichia coli was greater than 20 µM throughout. In the assay on HEK293, the CC50 was greater than 20 µM.

Take `CC(=O)O[C@H]1C[C@@]2(C)[C@@H](C[C@@H](O)[C@H]3[C@@]4(C)CC[C@@H](O)[C@@H](C)[C@@H]4CC[C@@]32C)/C1=C(\CCC=C(C)C)C(=O)O` [FUSIDIC ACID]: the MIC with Pseudomonas aeruginosa [1], against Cryptococcus neoformans, in the assay on Pseudomonas aeruginosa [2], in the assay on Klebsiella pneumoniae, against Acinetobacter baumannii and against Candida albicans was greater than 20 µM in each case. For the same compound, the MIC in the assay with Staphylococcus aureus is 0.312 µM (≈ 0.161 µg/mL); against Escherichia coli it was greater than 20 µM. For the same compound, the cytotoxic concentration (CC50) in the assay on HEK293 was greater than 20 µM.

On to `CCc1nc(N)nc(N)c1C#CC(C)c1cc(OC)cc(-c2ccncc2)c1` (stereo not given), for which the MIC against Pseudomonas aeruginosa [1], in the assay with Cryptococcus neoformans, in the assay on Pseudomonas aeruginosa [2], against Klebsiella pneumoniae, in the assay with Acinetobacter baumannii and in the assay with Candida albicans was greater than 20 µM each time. For the same compound, the MIC is 2.5 µM (≈ 0.934 µg/mL) with Staphylococcus aureus and greater than 20 µM against Escherichia coli. Moreover, the cytotoxic concentration (CC50) in the assay with HEK293 came out at 6.39 µM.

In the case of `O=C(/C=C/n1cnc(-c2cc(C(F)(F)F)cc(C(F)(F)F)c2)n1)NNc1cnccn1`, the MIC in the assay on Pseudomonas aeruginosa [1], in the assay with Cryptococcus neoformans, in the assay on Pseudomonas aeruginosa [2], against Klebsiella pneumoniae, against Acinetobacter baumannii and in the assay with Candida albicans was greater than 20 µM throughout. Also, the MIC in the assay on Staphylococcus aureus and in the assay on Escherichia coli was greater than 20 µM each time. The cytotoxic concentration (CC50) with HEK293 was greater than 20 µM.

For `C[C@H](Cn1cnc2c(N)ncnc21)OCP(=O)(O)O` [TENOFOVIR ANHYDROUS], the MIC in the assay on Pseudomonas aeruginosa [1], against Cryptococcus neoformans, in the assay with Pseudomonas aeruginosa [2], in the assay with Klebsiella pneumoniae, against Acinetobacter baumannii and with Candida albicans was greater than 20 µM in each case. For the same compound, the MIC with Staphylococcus aureus and in the assay on Escherichia coli was greater than 20 µM throughout. Also, the cytotoxic concentration (CC50) in the assay on HEK293 was greater than 20 µM.

Turning to `Oc1c(C(Nc2nc3ccccc3s2)c2ccc(OC(F)F)cc2)ccc2cccnc12` (stereo not given), the MIC against Pseudomonas aeruginosa [1], against Cryptococcus neoformans, in the assay on Pseudomonas aeruginosa [2], against Klebsiella pneumoniae, with Acinetobacter baumannii and with Candida albicans was greater than 20 µM in each case. In addition, the MIC in the assay on Staphylococcus aureus and in the assay on Escherichia coli was greater than 20 µM throughout. For the same compound, the cytotoxic concentration (CC50) in the assay on HEK293 stood at 9.22 µM.

As for `O=C(Nc1nnc(-c2ccccc2)o1)c1ccc(F)cc1`, the MIC was greater than 20 µM in the assay on Pseudomonas aeruginosa [1]; 20 µM (≈ 5.67 µg/mL) against Cryptococcus neoformans; greater than 20 µM with Pseudomonas aeruginosa [2]; greater than 20 µM in the assay on Klebsiella pneumoniae; greater than 20 µM in the assay with Acinetobacter baumannii; greater than 20 µM in the assay on Candida albicans. The MIC in the assay on Staphylococcus aureus is 20 µM (≈ 5.67 µg/mL); in the assay on Escherichia coli, greater than 20 µM. The CC50 with HEK293 was greater than 20 µM.

For the compound `COC(=O)Nc1nc2cc([S+]([O-])c3ccccc3)ccc2[nH]1` (stereo not given) [OXFENDAZOLE], the MIC against Pseudomonas aeruginosa [1], with Cryptococcus neoformans, against Pseudomonas aeruginosa [2], in the assay with Klebsiella pneumoniae, in the assay with Acinetobacter baumannii and against Candida albicans was greater than 20 µM throughout. Also, the MIC in the assay on Staphylococcus aureus and with Escherichia coli was greater than 20 µM throughout. For the same compound, the CC50 in the assay on HEK293 is greater than 20 µM.

For the compound `COc1ccc(COc2cc3oc(=O)c4cc(C(C)O)ccc4c3cc2OC)cc1` (stereo not given) [PALOMID-529], the MIC against Pseudomonas aeruginosa [1], against Cryptococcus neoformans, in the assay with Pseudomonas aeruginosa [2], against Klebsiella pneumoniae, against Acinetobacter baumannii and in the assay with Candida albicans was greater than 20 µM each time. Further, the MIC against Staphylococcus aureus and in the assay on Escherichia coli was greater than 20 µM each time. The CC50 in the assay with HEK293 is greater than 20 µM.

In the case of `Nc1cc(-c2nc3ccccc3[nH]2)n[nH]c1=O`, the MIC with Pseudomonas aeruginosa [1], in the assay on Cryptococcus neoformans, against Pseudomonas aeruginosa [2], with Klebsiella pneumoniae, against Acinetobacter baumannii and with Candida albicans was greater than 20 µM throughout. The MIC against Staphylococcus aureus and in the assay with Escherichia coli was greater than 20 µM throughout. In addition, in the assay with HEK293, the 50% cytotoxic concentration (CC50) is greater than 20 µM.

Take `CN(C)[C@@H]1C(=O)C(C(N)=O)=C(O)[C@@]2(O)C(=O)C3=C(O)c4c(O)c(NC(=O)CN5CCCC5)cc(F)c4C[C@H]3C[C@@H]12`: the MIC in the assay with Pseudomonas aeruginosa [1] was 0.625 µM (≈ 0.349 µg/mL); against Cryptococcus neoformans, greater than 20 µM; in the assay with Pseudomonas aeruginosa [2], 0.625 µM (≈ 0.349 µg/mL); in the assay with Klebsiella pneumoniae, 10 µM (≈ 5.59 µg/mL); with Acinetobacter baumannii, greater than 20 µM; in the assay on Candida albicans, greater than 20 µM. Moreover, the figures for the MIC against Staphylococcus aureus and in the assay on Escherichia coli were 0.312 µM (≈ 0.175 µg/mL) and 0.313 µM (≈ 0.175 µg/mL), respectively. Also, the CC50 with HEK293 was greater than 20 µM.

Regarding `CCCCc1ccc(S(=O)(=O)Nc2cc(C)on2)cc1`, the MIC with Pseudomonas aeruginosa [1], against Cryptococcus neoformans, against Pseudomonas aeruginosa [2], in the assay on Klebsiella pneumoniae, in the assay on Acinetobacter baumannii and against Candida albicans was greater than 20 µM each time. In addition, the MIC against Staphylococcus aureus and against Escherichia coli was greater than 20 µM in each case. Moreover, the CC50 in the assay on HEK293 is greater than 20 µM.

Take `COc1ccc2sc3c(c2c1)NC(C)CNC3=O` (stereo not given): the MIC with Pseudomonas aeruginosa [1], in the assay on Cryptococcus neoformans, in the assay with Pseudomonas aeruginosa [2], with Klebsiella pneumoniae, against Acinetobacter baumannii and against Candida albicans was greater than 20 µM throughout. Besides, the MIC against Staphylococcus aureus and with Escherichia coli was greater than 20 µM throughout. In addition, in the assay with HEK293, the CC50 came to 8.52 µM.

In the case of `CNC(=O)C1O[C@@H](n2cnc3c(NCc4cccc(I)c4)nc(Cl)nc32)[C@H](O)[C@@H]1O` (stereo not given in full), the MIC in the assay with Pseudomonas aeruginosa [1], in the assay with Cryptococcus neoformans, in the assay on Pseudomonas aeruginosa [2], against Klebsiella pneumoniae, in the assay on Acinetobacter baumannii and in the assay with Candida albicans was greater than 20 µM in each case. Also, the MIC against Staphylococcus aureus and in the assay on Escherichia coli was greater than 20 µM throughout. In addition, the CC50 in the assay on HEK293 is 18.3 µM.

For the compound `C[C@H]1[C@@H](c2cccc(C(F)(F)F)c2)OC(=O)N1C(=O)NCc1cncc2ccccc12`, the MIC with Pseudomonas aeruginosa [1], in the assay with Cryptococcus neoformans, in the assay on Pseudomonas aeruginosa [2], in the assay with Klebsiella pneumoniae, against Acinetobacter baumannii and in the assay on Candida albicans was greater than 20 µM in each case. Moreover, the MIC against Staphylococcus aureus and with Escherichia coli was greater than 20 µM each time. Besides, in the assay on HEK293, the CC50 was greater than 20 µM.

As to `O=c1[nH]c(=O)n(Cc2cccc(Oc3ccccc3)c2)cc1Nc1ccccc1`, the MIC in the assay with Pseudomonas aeruginosa [1], in the assay with Cryptococcus neoformans, against Pseudomonas aeruginosa [2], in the assay on Klebsiella pneumoniae, against Acinetobacter baumannii and with Candida albicans was greater than 20 µM in each case. In addition, the MIC against Staphylococcus aureus and against Escherichia coli was greater than 20 µM each time. In addition, the CC50 in the assay with HEK293 is greater than 20 µM.

Consider `CC(C)(C)c1ccc(C(=O)NC(=O)N2CCCc3ccccc32)cc1`, for which the MIC against Pseudomonas aeruginosa [1], against Cryptococcus neoformans, in the assay with Pseudomonas aeruginosa [2], against Klebsiella pneumoniae, with Acinetobacter baumannii and in the assay with Candida albicans was greater than 20 µM each time. In addition, the MIC against Staphylococcus aureus and in the assay with Escherichia coli was greater than 20 µM throughout. Also, the CC50 in the assay with HEK293 is greater than 20 µM.
